Assay results reported in US9872495B2, “Peptoid oligomers, pharmaceutical compositions and methods of using the same” (priority 2009, dated 2018).
In brackets after ≈: the same amount, converted by molar mass. Read-outs that look alike come from different tables or passages of the source. Numbered stars: 1 amine (or outer) side, 2 acyl side, 3 side chain; on linkers, the order of the positions; unused ones are H or OH. Square brackets hold non-standard residues; d marks the D form. Peptide text beside a SMILES is read from it. X1 = O=C(CN(CC(c1ccccc1)c1ccccc1)[*:1])[*:2]; Gly(N-(CH2)6NH2) = NCCCCCCNCC(=O)O; Gly(N(CH2)3NH2) = NCCCNCC(=O)O; NhArg = N=C(N)NCCCCNCC(=O)O; N(iPr)Gly = CC(C)NCC(=O)O; Nphe = O=C(O)CNCc1ccccc1; Nleu = CC(C)CNCC(=O)O; Nlys = NCCCCNCC(=O)O

Columns and labels:
Format in all cases: cell-based
[1] = system: fresh human erythrocytes; experiment: Hemolytic activity
Method: Typically, toxicity is evaluated by hemolytic concentration50 (HC50), which measures the concentration of antimicrobial agents at which 50% of the erythrocytes in the culture are lysed. Significant hemolysis, as evaluated by HC50, was detectable only for peptide gramicidin S (40 μg/mL). […] In order to test hemolytic activity of peptoid oligomers further, more stringent parameters were used. Instead of HC50, hemolytic concentration10 (HC10) was used to evaluate hemolytic activity of peptoids used in this study. HC10 represents the concentration of antimicrobial agents where 10% of erythrocytes are lysed. HC10 values were detectable for only four peptoid oligomers. […] Antimicrobial activity was tested against the gram-negative strain Escherichia coli ATCC 25922, and […] strains Staphylococcus aureus ATCC 25923, and Bacillus subtilis ATCC 6633, according to the guidelines given in the document […]-A7 of the CLSI (Clinical and Laboratory Standards Institute; Clinical and Laboratory Standards Institute. Methods for Dilution Antimicrobial Susceptibility Tests for Bacteria That Grow Aerobically-Seventh Edition: Approved Standard CLSI document […]-A7. CLSI, Wayne, USA, 2006). This reference is incorporated herein in its entirety. Hemolytic activity was tested against fresh human erythrocytes.

[2] = system: Escherichia coli ATCC 25922
Method: (§1) Antimicrobial activity was tested against the gram-negative strain Escherichia coli ATCC 25922, and […] strains Staphylococcus aureus ATCC 25923, and Bacillus subtilis ATCC 6633, according to the guidelines given in the document […]-A7 of the CLSI (Clinical and Laboratory Standards Institute; Clinical and Laboratory Standards Institute. Methods for Dilution Antimicrobial Susceptibility Tests for Bacteria That Grow Aerobically-Seventh Edition: Approved Standard CLSI document […]-A7. CLSI, Wayne, USA, 2006). This reference is incorporated herein in its entirety. Hemolytic activity was tested against fresh human erythrocytes.

[3] = system: Staphylococcus aureus ATCC 25923
Method: as §1

[4] = system: Bacillus subtilis ATCC 6633
Method: as §1

| SMILES | HC10 (concentration where 10% hemolysis is observed) ([1]; red cells of human) [µg/mL] | HC50 (concentration where 50% hemolysis is observed) ([1]; red cells of human) [µg/mL] | MIC E. coli ([2]; ATCC 25922) [µg/mL] | MIC S. aureus ([3]; ATCC 25923) [µg/mL] | MIC B. sub ([4]; ATCC 6633) [µg/mL] | HC10 (concentration where 10% hemolysis is observed) ([1]; fresh human erythrocytes) [µg/mL] | HC50 (concentration where 50% hemolysis is observed) ([1]; fresh human erythrocytes) [µg/mL] | MIC E. coli ([2]; E. coli ATCC 25922) [µg/mL] | MIC S. aureus ([3]; S. aureus ATCC 25923) [µg/mL] | MIC B. sub ([4]; B. subtilis ATCC 6633) [µg/mL] |
| --- | --- | --- | --- | --- | --- | --- | --- | --- | --- | --- |
| CC(=O)N(CCCCNC(=N)N)CC(=O)N(CC(=O)N(CCCCNC(=N)N)CC(=O)N(CC(=O)N(CCCCNC(=N)N)CC(=O)N(CC(N)=O)Cc1ccccc1)Cc1ccccc1)Cc1ccccc1 [Compound 2, Ac(NgbNpm)3] (Ac-[NhArg][Nphe][NhArg][Nphe][NhArg][Nphe]-NH2) | >250 | >250 | 250 (≈ 247 µM) | 125 (≈ 124 µM) | 62.5 (≈ 61.8 µM) |  |  |  |  |  |
| CC(=O)N(CCCCCCN)CC(=O)N(CC(=O)N(CCCCCCN)CC(=O)N(CC(=O)N(CCCCCCN)CC(=O)N(CC(N)=O)Cc1ccccc1)Cc1ccccc1)Cc1ccccc1 [Compound 3, Ac(NahNpm)3] (Ac-[Gly(N-(CH2)6NH2)][Nphe][Gly(N-(CH2)6NH2)][Nphe][Gly(N-(CH2)6NH2)][Nphe]-NH2) | >250 | >250 | >500 | >500 | >500 |  |  |  |  |  |
| CC(=O)N(CCCN)CC(=O)N(CC(=O)N(CCCN)CC(=O)N(CC(=O)N(CCCN)CC(=O)N(CC(N)=O)Cc1ccc2ccccc2c1)Cc1ccc2ccccc2c1)Cc1ccc2ccccc2c1 [Compound 5, Ac(NapNnm)3] | >250 | >250 | 62.5 (≈ 62.9 µM) | 125 (≈ 126 µM) | 2 (≈ 2.01 µM) |  |  |  |  |  |
| CC(=O)N(CCCN)CC(=O)N(CC(=O)N(CCCN)CC(=O)N(CC(=O)N(CCCN)CC(=O)N(CCCN)CC(N)=O)Cc1ccccc1)Cc1ccccc1 [Compound 6, Ac(NapNpm)2Nap2] (Ac-[Gly(N(CH2)3NH2)][Nphe][Gly(N(CH2)3NH2)][Nphe][Gly(N(CH2)3NH2)][Gly(N(CH2)3NH2)]-NH2) | >250 | >250 | >500 | >500 | >500 |  |  |  |  |  |
| CC(=O)N(CCCN)CC(=O)N(CC(=O)N(CCCN)CC(=O)N(CC(=O)N(CCCN)CC(=O)N(CC(N)=O)Cc1ccccc1)Cc1ccccc1)Cc1ccccc1 [Compound 7, Ac(NapNpm)3] (Ac-[Gly(N(CH2)3NH2)][Nphe][Gly(N(CH2)3NH2)][Nphe][Gly(N(CH2)3NH2)][Nphe]-NH2) | >250 | >250 | 125 (≈ 148 µM) | 250 (≈ 297 µM) | 125 (≈ 148 µM) |  |  |  |  |  |
| CC(=O)N(CCCN)CC(=O)N(CC(=O)N(CCCN)CC(=O)N(CC(=O)N(CCCN)CC(=O)N(CC(=O)N(CCCN)CC(=O)N(CC(N)=O)Cc1ccccc1)Cc1ccccc1)Cc1ccccc1)Cc1ccccc1 [Compound 8, Ac(NapNpm)4] (Ac-[Gly(N(CH2)3NH2)][Nphe][Gly(N(CH2)3NH2)][Nphe][Gly(N(CH2)3NH2)][Nphe][Gly(N(CH2)3NH2)][Nphe]-NH2) | >250 | >250 | 250 (≈ 226 µM) | 250 (≈ 226 µM) | 31.3 (≈ 28.3 µM) |  |  |  |  |  |
| CC(=O)N(CCCN)CC(=O)N(CC(=O)N(CCCN)CC(=O)N(CC(=O)N(CCCN)CC(=O)N(CC(=O)N(CCCN)CC(=O)N(CC(=O)N(CCCN)CC(=O)N(CC(N)=O)Cc1ccccc1)Cc1ccccc1)Cc1ccccc1)Cc1ccccc1)Cc1ccccc1 [Compound 9, Ac(NapNpm)5] (Ac-[Gly(N(CH2)3NH2)][Nphe][Gly(N(CH2)3NH2)][Nphe][Gly(N(CH2)3NH2)][Nphe][Gly(N(CH2)3NH2)][Nphe][Gly(N(CH2)3NH2)][Nphe]-NH2) | >250 | >250 | 31.3 (≈ 22.9 µM) | 62.5 (≈ 45.8 µM) | 15.6 (≈ 11.4 µM) |  |  |  |  |  |
| CC(=O)N(CC(=O)N(CCCN)CC(=O)N(CC(=O)N(CCCN)CC(=O)N(CC(=O)N(CC(N)=O)Cc1ccccc1)Cc1ccccc1)Cc1ccccc1)Cc1ccccc1 [Compound 10, Ac(NpmNap)2Npm2] (Ac-[Nphe][Gly(N(CH2)3NH2)][Nphe][Gly(N(CH2)3NH2)][Nphe][Nphe]-NH2) | >250 | >250 | >500 | >500 | 31.3 (≈ 35.7 µM) |  |  |  |  |  |
| CC(=O)N(CC(=O)N(CCCN)CC(=O)N(CC(=O)N(CC(=O)N1CCC[C@H]1C(=O)N(CC(=O)N(CCCN)CC(=O)N(CC(=O)N(CC(=O)N1CCC[C@H]1C(N)=O)Cc1ccccc1)CC(C)C)C(C)C)Cc1ccccc1)CC(C)C)C(C)C [Compound 11, Ac(NipNapNibNpmPro)2] (Ac-[N(iPr)Gly][Gly(N(CH2)3NH2)][Nleu][Nphe]P[N(iPr)Gly][Gly(N(CH2)3NH2)][Nleu][Nphe]P-NH2) |  |  |  |  |  | >250 | >250 | >500 | >500 | >500 |
| CC(=O)N(CC(=O)N(CC(=O)N(CCCCNC(=N)N)CC(=O)N(CC(=O)N1CCC[C@H]1C(=O)N(CC(=O)N(CC(=O)N(CCCCNC(=N)N)CC(=O)N(CC(=O)N1CCC[C@H]1C(N)=O)C(C)C)CC(C)C)CC(c1ccccc1)c1ccccc1)C(C)C)CC(C)C)CC(c1ccccc1)c1ccccc1 [Compound 12, Ac(NdpNibNgbNipPro)2] (Ac-[X1][Nleu][NhArg][N(iPr)Gly]P[X1][Nleu][NhArg][N(iPr)Gly]P-NH2) | >250 | >250 | 250 (≈ 167 µM) | 500 (≈ 335 µM) | 500 (≈ 335 µM) |  |  |  |  |  |
| CC(=O)N(CC(=O)N(CC(=O)N(CCCN)CC(=O)N(CC(=O)N1CCCC1C(=O)N(CC(=O)N(CC(=O)N(CCCN)CC(=O)N(CC(=O)N1CCCC1C(N)=O)C(C)C)CC(C)C)Cc1ccccc1)C(C)C)CC(C)C)Cc1ccccc1 (stereo not drawn) [Compound 13, Ac(NpmNibNapNipPro)2] (Ac-[Nphe][Nleu][Gly(N(CH2)3NH2)][N(iPr)Gly]P[Nphe][Nleu][Gly(N(CH2)3NH2)][N(iPr)Gly]P-NH2; configuration not given here) | >250 | >250 | >500 | >500 | >500 |  |  |  |  |  |
| CC(=O)N(CCCCN)CC(=O)N(CC(=O)N(CCCCN)CC(=O)N(CC(=O)N(CCCCN)CC(=O)N(CC(N)=O)Cc1ccccc1)Cc1ccccc1)Cc1ccccc1 [Compound 14, Ac(NabNpm)3] (Ac-[Nlys][Nphe][Nlys][Nphe][Nlys][Nphe]-NH2) | >250 | >250 | >500 | >500 | >500 |  |  |  |  |  |
| CC(=O)N(CCCCNC(=N)N)CC(=O)N(CC(=O)N(CCCCNC(=N)N)CC(=O)N(CC(=O)N(CCCCNC(=N)N)CC(=O)N(CC(=O)N(CCCCNC(=N)N)CC(=O)N(CC(=O)N(CCCCNC(=N)N)CC(=O)N(CC(N)=O)CC(c1ccccc1)c1ccccc1)CC(c1ccccc1)c1ccccc1)CC(c1ccccc1)c1ccccc1)CC(c1ccccc1)c1ccccc1)CC(c1ccccc1)c1ccccc1 [Compound 15, Ac(NgbNdp)5] | >250 | >250 | 31.3 (≈ 14.9 µM) | 62.5 (≈ 29.8 µM) | 62.5 (≈ 29.8 µM) |  |  |  |  |  |
| CC(=O)N(CC(=O)N(CCCCNC(=N)N)CC(=O)N(CC(=O)N(CCCCNC(=N)N)CC(=O)N(CC(=O)N(CC(N)=O)CC(c1ccccc1)c1ccccc1)CC(c1ccccc1)c1ccccc1)CC(c1ccccc1)c1ccccc1)CC(c1ccccc1)c1ccccc1 [Compound 16, Ac(NdpNgb)2Ndp2] |  |  |  |  |  | 250 | >250 | >500 | 62.5 (≈ 46.3 µM) | >500 |
| CC(C)CN1CC(=O)N(CCCN)CC(=O)N(C(C)C)CC(=O)N2CCC[C@H]2C(=O)N(Cc2ccccc2)CC(=O)N(CC(C)C)CC(=O)N(CCCN)CC(=O)N(C(C)C)CC(=O)N2CCC[C@H]2C(=O)N(Cc2ccccc2)CC1=O [Compound 29, C(NpmNibNapNipPro)2] (cyclo([Nleu][Gly(N(CH2)3NH2)][N(iPr)Gly]P[Nphe][Nleu][Gly(N(CH2)3NH2)][N(iPr)Gly]P[Nphe])) | >250 | >250 |  |  |  |  |  |  |  |  |
